According to paper PMC9269301, “Phytochemical Analysis, Antioxidant, Antimicrobial, and Cytotoxic Activity of Different Extracts of Xanthoparmelia stenophylla Lichen from Stara Planina, Serbia” (Plants, 2022):
Converted amounts (≈) assume the structure as drawn. Like-named read-outs stand apart in the source and are kept apart here. Marks after values point to notes of the source that are not given here.

Columns and labels:
[1] = test system: S. enterica (isolate); assay: microbe, parasite or virus in culture; format: cell-based, Salmonella enterica
Procedure: (§1) The tested methanol, acetone, and n-hexane extracts, as well as the component (usnic acid) of X. stenophylla, were dissolved in 10% dimethyl sulfoxide (DMSO) and then diluted into the nutrient liquid medium. DMSO was obtained from Acros Organics (Fair Lawn, NJ, USA). Resazurin was obtained from Alfa Aesar GmbH & Co. (KG, Karlsruhe, Germany).
(§2) The antimicrobial activity of the extracts and components was tested against 19 microorganisms. The experiment involved 15 strains of bacteria (i.e., 6 standard strains: Staphylococcus aureus ATCC 6538, Bacillus subtilis ATCC 6633, Proteus mirabilis ATCC 12453, Pseudomonas aeruginosa ATCC 27853, Klebsiella pneumoniae ATCC 70063, and Escherichia coli ATCC 25922; 9 isolates: Staphylococcus aureus, Escherichia coli, Salmonella enterica, Salmonella Typhimurium, Proteus mirabilis, Klebsiella pneumoniae, Pseudomonas aeruginosa, Bacillus subtilis, and Bacillus cereus). In addition, four fungal strains (i.e., two standard strains: Candida albicans ATCC 10231 and Aspergillus niger ATCC 16888; two isolates: Saccharomyces cerevisiae and Candida albicans) were tested. All isolates were a generous gift from the Institute of Public Health, Kragujevac. The other microorganisms were provided from the collection held by the Microbiology Laboratory Faculty of Science, University of Kragujevac.
(§3) The bacterial suspensions were prepared by the direct colony method. The turbidity of the initial suspension was adjusted using a densitometer (DEN-1, BioSan, Riga, Latvia). When adjusted to the turbidity of the 0.5 McFarland’s standard (Andrews, 2005) the bacteria suspension contained approximately 10^8 colony-forming units (CFU)/mL, and the suspension of yeast contained 10^6 CFU/mL; 1:100 dilutions of the initial suspension were additionally prepared in sterile 0.85% saline. The suspensions of fungal spores were prepared by gentle stripping of spores from slopes with growing mycelia. The resulting suspensions were 1:1000 diluted in sterile 0.85% saline.
(§4) Antimicrobial activity was tested by determining the minimum inhibitory concentrations (MICs) and minimum microbicidal concentrations (MBCs) using the microdilution plate method with resazurin [56]. The 96-well plates were prepared by dispensing 100 μL of Mueller–Hinton broth for bacteria and Sabouard broth for fungi into each well. A 10 μL aliquot from the stock solution of the tested extract or component was added to the first row of the plate. Then, two-fold serial dilutions were performed using a multichannel pipette. The obtained concentration range was from 10 to 0.08 mg/mL. The method is described in detail in [76].
(§5) Each test included growth control and sterility control.
(§6) Minimum microbicidal concentrations were determined by plating 10 μL of samples from wells where no indicator color change or no mycelia growth was recorded on a nutrient agar medium. At the end of the incubation period, the lowest concentration with no growth (no colony) was defined as the minimum microbicidal concentration.

[2] = test system: P. aeruginosa ATCC 27853; assay: Microdilution with resazurin, antibacterial; format: cell-based, Pseudomonas aeruginosa
Procedure: as §1, §2, §3, §4, §5, §6

[3] = test system: P. aeruginosa (isolate); assay: Microdilution with resazurin, antibacterial; format: cell-based, Pseudomonas aeruginosa
Procedure: as §1, §2, §3, §4, §5, §6

[4] = test system: P. mirabilis ATCC 12453; assay: Microdilution with resazurin, antibacterial; format: cell-based, Proteus mirabilis
Procedure: as §1, §2, §3, §4, §5, §6

[5] = test system: P. mirabilis (isolate); assay: Microdilution with resazurin, antibacterial; format: cell-based, Proteus mirabilis
Procedure: as §1, §2, §3, §4, §5, §6

[6] = test system: HeLa cells (cervical adenocarcinoma); assay: MTT assay; format: cell-based, human; details: HeLa
[7] = test system: S. aureus ATCC 6538 biofilm; assay: Biofilm metabolic activity by resazurin; format: cell-based, Staphylococcus aureus; details: at some concentrations, Figure 4
Procedure: Resazurin (7-hydroxy-3H-phenoxazin-3-one-10-oxide) is a viability dye used to assess the metabolic activity of biofilms. After incubation at 37 °C/48 h, a volume of 10 µL of resazurin indicator solution was added to each well. Plates were incubated in the dark for 3 h at 37 °C. The OD was measured at 590 nm using an enzyme-linked immunosorbent assay (ELISA) plate reader. In addition, the color change from purple to pink indicated the metabolic activity of the formed biofilm.

[8] = test system: A. niger ATCC 16888; assay: Microdilution with resazurin, antifungal; format: cell-based, Aspergillus niger; details: extracts and usnic acid
Procedure: as §1, §2, §3, §4, §5, §6

[9] = Hydroxyl radical scavenging activity (2-deoxyribose); format: biochemical; details: mean ± SD, triplicate
Procedure: All chemicals for the antioxidant activity test were purchased from Sigma Aldrich. All measurements were conducted in triplicate, and a Shimadzu UV-1800 spectrophotometer was used for all measurements during antioxidant activity experiments. The IC50 value was used for comparing different radical scavenging effects between investigated extracts, isolated compounds, and positive controls. The ability to inhibit non-site-specific peroxidation mediated by hydroxyl radicals for […], and XSH was determined using the method previously described in the literature. During the experiment, in a reaction mixture that contained 500 μL of 5.6 mM 2-deoxy-D-ribose in KH2PO4-NaOH buffer (50 mM, pH 7.4), 100 μL of 1.0 mM aqueous ascorbic acid, 100 μL of 1.0 mM H2O2, and 200 μL of premixed solution of 100 μM FeCl3 and […] EDTA (1:1 v/v), 100 μL of extract dissolved in water was added. The tubes were vigorously shaken, vortexed, and incubated for 30 min at 50 °C. […] The mixture was vortexed again and heated in a water bath for 30 min at 50 °C. […] Ac stands for absorbance of the control (which contains all reagents, except the tested extract or compound), and As is the absorbance of the sample.

[10] = test system: C. albicans (isolate); assay: Microdilution with resazurin, antifungal; format: cell-based, Candida albicans; details: extracts and usnic acid
Procedure: as §1, §2, §3, §4, §5, §6

[11] = test system: C. albicans ATCC 10231; assay: Microdilution with resazurin, antifungal; format: cell-based, Candida albicans; details: extracts and usnic acid
Procedure: as §1, §2, §3, §4, §5, §6

[12] = test system: S. cerevisiae (isolate); assay: Microdilution with resazurin, antifungal; format: cell-based, Saccharomyces cerevisiae; details: extracts and usnic acid
Procedure: as §1, §2, §3
as §4, with “[76]. […]” for “[76].”
Minimum microbicidal concentrations were determined by plating 10 μL of samples from wells where no indicator color change or no mycelia growth was recorded on a nutrient agar medium. […]

[13] = test system: HCT 116 cells (colon cancer); assay: MTT assay; format: cell-based, human
[14] = S. enterica, extracts and usnic acid

Compound: CN(C)[C@@H]1C(O)=C(C(N)=O)C(=O)[C@@]2(O)C(O)=C3C(=O)c4c(O)cccc4[C@@](C)(O)[C@H]3C[C@@H]12 [TC, tetracycline]
- MBC ([1]; Salmonella enterica): 2 µg/mL (≈ 4.5 µM)
- MBC ([2]; Pseudomonas aeruginosa, ATCC27853, antibiotics, read-out: MBC): 32 µg/mL (≈ 72 µM)
- MIC ([2]; Pseudomonas aeruginosa, ATCC27853, antibiotics, read-out: MIC): 4 µg/mL (≈ 9 µM)
- MBC ([3]; Pseudomonas aeruginosa, antibiotics, read-out: MBC): > 128 µg/mL
- MIC ([3]; Pseudomonas aeruginosa, antibiotics, read-out: MIC): > 128 µg/mL
- MBC ([4]; Proteus mirabilis, ATCC12453, antibiotics, read-out: MBC): 4 µg/mL (≈ 9 µM)
- MIC ([4]; Proteus mirabilis, ATCC12453, antibiotics, read-out: MIC): 2 µg/mL (≈ 4.5 µM)
- MBC ([5]; Proteus mirabilis, antibiotics, read-out: MBC): > 128 µg/mL
- MIC ([5]; Proteus mirabilis, antibiotics, read-out: MIC): > 128 µg/mL

Compound: usnic acid
- GI50 (50% growth inhibition) ([6]; 24 h): >100 µg/mL
- IC50 ([6]; 24 h): >100 µg/mL
- TGI (total growth inhibition) ([6]; 24 h): >100 µg/mL
- GI50 (50% growth inhibition) ([6]; 48 h): 99.16 ± 15.59 µg/mL
- IC50 ([6]; 48 h): >100 µg/mL
- TGI (total growth inhibition) ([6]; 48 h): >100 µg/mL
- GI50 (50% growth inhibition) ([6]; 72 h): 64.28 ± 8.34 µg/mL
- TGI (total growth inhibition) ([6]; 72 h): 86.91 ± 5.42 µg/mL
- IC50 ([6]; 72 h, listed as UA): >100 µg/mL
- Metabolic activity of biofilm compared to the growth control [7]: lower
- MFC [8]: <10000 µg/mL
- MIC [8]: 10000 µg/mL
- MBC [1, 14]: <10000 µg/mL
- MIC [1, 14]: <10000 µg/mL
- Hydroxyl Radical Scavenging Activity (IC50) [9]: 120.05 ± 0.85 ^a,b,c,d µg/mL
- MFC [10]: <10000 µg/mL
- MIC [10]: 10000 µg/mL
- MFC [11]: <10000 µg/mL
- MIC [11]: 10000 µg/mL
- MBC ([2]; extracts and usnic acid): <10000 µg/mL
- MIC ([2]; extracts and usnic acid): 10000 µg/mL
- MBC ([3]; extracts and usnic acid): <10000 µg/mL
- MIC ([3]; extracts and usnic acid): 10000 µg/mL
- MBC ([4]; extracts and usnic acid): <10000 µg/mL
- MIC ([4]; extracts and usnic acid): <10000 µg/mL
- MBC ([5]; extracts and usnic acid): <10000 µg/mL
- MIC ([5]; extracts and usnic acid): <10000 µg/mL
- MFC [12]: 10000 µg/mL
- MIC [12]: 5000 µg/mL
- GI50 (50% growth inhibition) ([13]; HCT 116, 24 h): 41.94 ± 3.12 µg/mL
- IC50 ([13]; HCT 116, 24 h): >100 µg/mL
- TGI (total growth inhibition) ([13]; HCT 116, 24 h): 79.12 ± 1.18 µg/mL
- GI50 (50% growth inhibition) ([13]; HCT 116, 48 h): 27.21 ± 1.94 µg/mL
- IC50 ([13]; HCT 116, 48 h): 83.99 ± 4.22 µg/mL
- TGI (total growth inhibition) ([13]; HCT 116, 48 h): 63.58 ± 0.90 µg/mL
- GI50 (50% growth inhibition) ([13]; HCT 116, 72 h): 15.87 ± 2.89 µg/mL
- IC50 ([13]; HCT 116, 72 h): 23.79 ± 2.10 µg/mL
- TGI (total growth inhibition) ([13]; HCT 116, 72 h): 64.91 ± 1.44 µg/mL
